Experimental data from patent US6071709A, “Nerve growth factor/receptor complex” (The United States of America as represented by the …, priority 1992, dated 2000).
“Also recorded” adds a separate entry of the source.

Tested on: gp145^trkB
Assay: gp145^trkB tyrosine phosphorylation in trkB-expressing NIH 3T3 cells (pJM8 lines), immunoprecipitation and α-Ptyr Western
Type: cell-based, rat
Details: pJM8 trkB-expressing NIH 3T3 cells, 100 ng/ml factor, 5 min
Method: A 4.8 kb cDNA encompassing the coding domain of rat trkB (Middlemas et al., (1991)) was cloned into the pMEX plasmid (pJM8) downstream of the MSV promoter. NIH 3T3 cells were cotransfected with the pJM8 plasmid and a plasmid containing the neomycin phosphotransferase gene (L. F. Parada et al., Nature 312:649-651 (1984)), and G418-resistant colonies were selected. PC12 cells (Greene and Tischler, 1976) were grown in DMEM with 10% horse serum and 5% fetal calf serum. NIH 3T3 cells and the derivative cells lines were maintained in DMEM medium containing 10% calf serum. All cells were maintained in a humidified incubator at 37° C. in 5% CO2.
Approximately 10^7 cells were treated at 37° C. for 5 min with 100 ng/ml growth factors or at the concentrations and lengths of time noted in the text. NP-40 plate lysis and gp145^trkB immunoprecipitation with anti-serum 443 were performed as previously described (Kaplan et al., (1990), (1991)). The phosphotyrosine content was analyzed by Western transfer using monoclonal antibody 4G10 as previously described (Morrison et al., (1989)).
The product of the trk proto-oncogene (gp140^proto-trk) is tyrosine phosphorylated in response to NGF in PC12 cells, NGF-responsive neuroblastoma cells, heterologous fibroblasts and Xenopus oocytes (Kaplan et al., (1991); A. R. Nebreda et al., Science 252:558-560 (1991); Klein et al., (1991)). Next it was examined whether NGF elicited tyrosine phosphorylation of gp145^trkB in trkB-expressing NIH 3T3 cells. Cell line pJM8-3 was treated with high concentrations of NGF (100 ng/ml) for 5 minutes. The cells were lysed, immunoprecipitated with anti-trkB antiserum 443, transferred to nitrocellulose filters and probed with anti-phosphotyrosine (α-Ptyr) antibodies. As a negative control, untransfected NIH-3T3 cells were treated in parallel, while PC12 cells were used as a positive control for NGF responsiveness (Kaplan et al., (1991)).
BDNF and NT-3 are neurotrophic factors that display many functional and structural features that are reminiscent of NGF. The genes encoding BDNF and NT-3 have recently been cloned and used to express high levels of the biologically active factors in pure form (A. Rosenthal et al., Neuron 4:773 (1990)). It was tested whether these NGF-related neurotrophic factors would stimulate phosphorylation of the trkB glycoprotein by exposing the pJM-8 cell lines to 100 ng/ml of NGF, BDNF, or NT-3 (~4 nM) for 5 minutes. The cells were then lysed and the lysates incubated with a trkB anti-peptide antiserum (443) with or without excess peptide. After transfer to nitrocellulose filters, the trkB proteins were probed with an anti-phosphotyrosine (α-ptyr) monoclonal antibody (FIG. 10) (Kaplan et al. (1991)). […] Thus, both neurotrophic factors NT-3 and BDNF can elicit tyrosine phosphorylation of gp145^trkB in a manner similar to that observed for NGF stimulation of the trk receptor. Similar results have been obtained with NT-3 and BDNF in Rat2 cells expressing trkB.
Having detected gp145^trkB phosphorylation in response to BDNF and NT-3, it was next determined whether unrelated polypeptide growth factors were capable of eliciting a similar response. Platelet-derived growth factor (PDGF; 100 ng/ml), epidermal growth factor (EGF; 100 ng/ml), insulin (100 ng/ml), and basic fibroblast growth factor (bFGF; 100 ng/ml), were added independently to exponentially growing cultures of pJM8-3 cells.
The previous studies were done in the presence of high concentrations of neurotrophic factors. Dose response experiments were next performed to determine the range of concentrations at which phosphorylation of the trkB receptor was stimulated by NT-3 or BDNF. Cells were incubated with quantities of NT-3 or BDNF ranging from 0.1 ng/ml to 250 ng/ml and treated as described in FIG. 12. […]

With “NGF: neurotrophic polypeptide factor, nerve growth factor; ligand of trk proto-oncogene receptor” the “tyrosine phosphorylation of gp145^trkB” value was “no increase in phosphorylation; also recorded: no detectable effect”.
